Results: patent US20170000749A1, “Methods for Treating Cognitive Disorders Using Inhibitors of Histone Deacetylase” (Forum Pharmaceuticals, Inc., priority 2008, published 2017)
Read-outs that look alike come from different tables or passages of the source.

Assays:
[1] = tested on: HDAC activity in primary mouse cortical cultures; test: Whole-Cell Histone Deacetylase (HDAC) Inhibition Assay in Primary Mouse Cortical Cultures; assay type: cell-based; details: whole-cell (WC), mouse cortical neurons, read-out: HDAC Inhibition (IC50 μM) WC mouse cortical neurons
Outline: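 Primary neocortical neurons from E17 Balb/C mouse embryos were plated at 50000 cells/well and treated at DIV9 with ten-point DMSO dilutions for 16-18 h at 37° C, in triplicate. BOC-Lys(Ac)-AMC substrate was then added for 1 h. Fluor de Lys developer containing 1 uM TSA produced a fluorophore, which was read.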

[2] = target: one or more of HDAC-1, HDAC-2, HDAC-3, HDAC-4, HDAC-5, HDAC-6, HDAC-7, HDAC-8, HDAC-9, HDAC-10 and HDAC-11; test: Inhibition of Histone Deacetylase Enzymatic Activity (Boc-Lys(Ac)-AMC substrate, Fluor-de-Lys developer); assay type: biochemical; details: read-out: HDAC Inhibition (IC50 μM) HDAC Enzyme
Procedure: The following protocol is used to assay the compounds of the disclosure.
The mixture is pre-incubated for 5 minutes at room temperature. The reaction is started by bringing the temperature to 37° C. and adding 16 μl substrate. Total reaction volume is 50 μl.
In the Tables 8, 9 and 10, A≦0.05 μM; 0.05 μM<B≦0.1 μM; 0.1 μM<C≦1 μM; and 1 μM<D≦10 μM.

| SMILES | IC50 ([1]; Table 9) [µM] | IC50 ([2]; Table 9) [µM] | also measured |
| --- | --- | --- | --- |
| O=C(NO)c1cnc(N2C[C@@H]3C[C@H]2CN3c2ccccc2C(F)(F)F)nc1 [N-hydroxy-2-((1S,4S)-5-(2-(trifluoromethyl)phenyl)-2,5-diazabicyclo[2.2.1]heptan-2-yl)pyrimidine-5-carboxamide] | 1 to 5 | 0.1 to 1 |  |
| O=C(NO)c1cnc(N2C[C@@H]3C[C@H]2CN3c2cc(C(F)(F)F)nc3ccccc23)nc1 [N-hydroxy-2-((1S,4S)-5-(2-(trifluoromethyl)quinolin-4-yl)-2,5-diazabicyclo[2.2.1]heptan-2-yl)pyrimidine-5-carboxamide] | < 1 | < 0.05 |  |
| O=C(NO)c1cnc(N2C[C@@H]3C[C@H]2CN3c2cccc(OC(F)(F)F)c2)nc1 [N-hydroxy-2-((1S,4S)-5-(3-(trifluoromethoxy)phenyl)-2,5-diazabicyclo[2.2.1]heptan-2-yl)pyrimidine-5-carboxamide] | < 1 | < 0.05 |  |
| O=C(NO)c1cnc(N2C[C@@H]3C[C@H]2CN3C(=O)c2cccc(C(F)(F)F)c2)nc1 [N-hydroxy-2-((1S,4S)-5-(3-(trifluoromethyl)benzoyl)-2,5-diazabicyclo[2.2.1]heptan-2-yl)pyrimidine-5-carboxamide] | 1 to 5 | 0.05 to 0.1 |  |
| O=C(NO)c1cnc(N2C[C@@H]3C[C@H]2CN3c2cccc(C(F)(F)F)c2)nc1 [N-hydroxy-2-((1S,4S)-5-(3-(trifluoromethyl)phenyl)-2,5-diazabicyclo[2.2.1]heptan-2-yl)pyrimidine-5-carboxamide] | < 1 | < 0.05 |  |
| O=C(NO)c1cnc(N2C[C@@H]3C[C@H]2CN3c2cccc(C(F)(F)F)c2)s1 [N-hydroxy-2-((1S,4S)-5-(3-(trifluoromethyl)phenyl)-2,5-diazabicyclo[2.2.1]heptan-2-yl)thiazole-5-carboxamide] | 1 to 5 | < 0.05 |  |
| O=C(NO)c1cnc(N2C[C@@H]3C[C@H]2CN3c2cccc(SC(F)(F)F)c2)nc1 [N-hydroxy-2-((1S,4S)-5-(3-(trifluoromethylthio)phenyl)-2,5-diazabicyclo[2.2.1]heptan-2-yl)pyrimidine-5-carboxamide] | 1 to 5 | < 0.05 |  |
| COc1cccc(N2C[C@@H]3C[C@H]2CN3c2ncc(C(=O)NO)cn2)c1 [N-hydroxy-2-((1S,4S)-5-(3-methoxyphenyl)-2,5-diazabicyclo[2.2.1]heptan-2-yl)pyrimidine-5-carboxamide] | < 1 | < 0.05 |  |
| O=C(NO)c1cnc(N2C[C@@H]3C[C@H]2CN3c2ccc(C(F)(F)F)cc2)nc1 [N-hydroxy-2-((1S,4S)-5-(4-(trifluoromethyl)phenyl)-2,5-diazabicyclo[2.2.1]heptan-2-yl)pyrimidine-5-carboxamide] | 1 to 5 | < 0.05 |  |
| O=C(NO)c1cnc(N2C[C@@H]3C[C@H]2CN3c2cc(C(F)(F)F)ccn2)nc1 [N-hydroxy-2-((1S,4S)-5-(4-(trifluoromethyl)pyridin-2-yl)-2,5-diazabicyclo[2.2.1]heptan-2-yl)pyrimidine-5-carboxamide] | < 1 | < 0.05 |  |
| O=C(NO)c1cnc(N2C[C@@H]3C[C@H]2CN3c2nccc(C(F)(F)F)n2)nc1 [N-hydroxy-2-((1S,4S)-5-(4-(trifluoromethyl)pyrimidin-2-yl)-2,5-diazabicyclo[2.2.1]heptan-2-yl)pyrimidine-5-carboxamide] | < 1 | < 0.05 |  |
| O=C(NO)c1cnc(N2C[C@@H]3C[C@H]2CN3c2cncc(C(F)(F)F)c2)nc1 [N-hydroxy-2-((1S,4S)-5-(5-(trifluoromethyl)pyridin-3-yl)-2,5-diazabicyclo[2.2.1]heptan-2-yl)pyrimidine-5-carboxamide] | < 1 | < 0.05 |  |
| O=C(NO)c1cnc(N2C[C@@H]3C[C@H]2CN3c2cccc(C(F)(F)F)n2)nc1 [N-hydroxy-2-((1S,4S)-5-(6-(trifluoromethyl)pyridin-2-yl)-2,5-diazabicyclo[2.2.1]heptan-2-yl)pyrimidine-5-carboxamide] | < 1 | < 0.05 |  |
| O=C(NO)c1cnc(N2C[C@@H]3C[C@H]2CN3C(=O)N2CCCC2)nc1 [N-hydroxy-2-((1S,4S)-5-(pyrrolidine-1-carbonyl)-2,5-diazabicyclo[2.2.1]heptan-2-yl)pyrimidine-5-carboxamide] | < 1 | 0.05 to 0.1 |  |
| Cc1cccc(N2C[C@@H]3C[C@H]2CN3c2ncc(C(=O)NO)cn2)c1 [N-hydroxy-2-((1S,4S)-5-m-tolyl-2,5-diazabicyclo[2.2.1]heptan-2-yl)pyrimidine-5-carboxamide] | < 1 | < 0.05 |  |
| Cc1ccccc1N1C[C@@H]2C[C@H]1CN2c1ncc(C(=O)NO)cn1 [N-hydroxy-2-((1S,4S)-5-o-tolyl-2,5-diazabicyclo[2.2.1]heptan-2-yl)pyrimidine-5-carboxamide] | 1 to 5 | 0.05 to 0.1 |  |

| SMILES | IC50 ([1]; Table 9) [µM] | IC50 ([2]; Table 9) [µM] | also measured |
| --- | --- | --- | --- |
| Cc1ccc(N2C[C@@H]3C[C@H]2CN3c2ncc(C(=O)NO)cn2)cc1 [N-hydroxy-2-((1S,4S)-5-p-tolyl-2,5-diazabicyclo[2.2.1]heptan-2-yl)pyrimidine-5-carboxamide] | < 1 | < 0.05 |  |
| O=C(NO)c1cnc(N2C[C@@H]3C[C@H]2CN3c2ccccc2)nc1 [N-hydroxy-2-((1S,4S)-5-phenyl-2,5-diazabicyclo[2.2.1]heptan-2-yl)pyrimidine-5-carboxamide] | < 1 | 0.05 to 0.1 |  |
| O=C(CCn1cc(CN2C(=O)c3ccccc3Oc3ccccc32)nn1)NO [N-hydroxy-3-(4-((11-oxodibenzo[b,f][1,4]oxazepin-10(11H)-yl)methyl)-1H-1,2,3-triazol-1-yl)propanamide] |  |  | IC50 ([1]; Table 10): 1 to 5 µM; IC50 ([2]; Table 10): 0.1 to 1 µM |
| O=C(CCc1ccc(CN2C(=O)c3ccccc3Oc3ccccc32)cc1)NO [N-hydroxy-3-(4-((11-oxodibenzo[b,f][1,4]oxazepin-10(11H)-yl)methyl)phenyl)propanamide] |  |  | IC50 ([1]; Table 10): 1 to 5 µM; IC50 ([2]; Table 10): 0.1 to 1 µM |
| O=C(NO)c1ccc(C#CCN2C(=O)c3ccccc3Oc3ccccc32)cc1 [N-hydroxy-4-(3-(11-oxodibenzo[b,f][1,4]oxazepin-10(11H)-yl)prop-1-ynyl)benzamide] |  |  | IC50 ([1]; Table 10): 1 to 5 µM; IC50 ([2]; Table 10): < 0.05 µM |
| O=C(NO)c1ccc(CCCN2C(=O)c3ccccc3Oc3ccccc32)cc1 [N-hydroxy-4-(3-(11-oxodibenzo[b,f][1,4]oxazepin-10(11H)-yl)propyl)benzamide] |  |  | IC50 ([1]; Table 10): < 1 µM; IC50 ([2]; Table 10): 0.05 to 0.1 µM |
| Cc1cccc(N2CC3CC2CN3c2ccc(C(=O)NO)cc2)c1 (centres unmarked) [N-hydroxy-4-(5-m-tolyl-2,5-diazabicyclo[2.2.1]heptan-2-yl)benzamide] | 1 to 5 | 0.1 to 1 |  |
| CN1c2ccccc2Oc2ccccc2C1c1ccc(C(=O)NO)cc1 (centres unmarked) [N-hydroxy-4-(10-methyl-10,11-dihydrodibenzo[b,f][1,4]oxazepin-11-yl)benzamide] |  |  | IC50 ([1]; Table 8): 5 to 15 µM; IC50 ([2]; Table 8): 0.1 to 1 µM |
| O=C(NO)c1ccc(N2C(=O)c3ccccc3Oc3ccccc32)cc1 [N-hydroxy-4-(11-oxodibenzo[b,f][1,4]oxazepin-10(11H)-yl)benzamide] |  |  | IC50 ([1]; Table 10): > 15 µM; IC50 ([2]; Table 10): 0.1 to 1 µM |
| O=C(NO)c1ccc(N2C[C@H]3C[C@@H]2CN3c2cc(C(F)(F)F)ccn2)cc1 [N-hydroxy-4-((1R,4R)-5-(4-(trifluoromethyl)pyridin-2-yl)-2,5-diazabicyclo[2.2.1]heptan-2-yl)benzamide] | 5 to 15 | 1 to 10 |  |
| Cc1cccc(N2C[C@H]3C[C@@H]2CN3c2ccc(C(=O)NO)cc2)c1 [N-hydroxy-4-((1R,4R)-5-m-tolyl-2,5-diazabicyclo[2.2.1]heptan-2-yl)benzamide] | 1 to 5 | 0.1 to 1 |  |
| O=C(NO)c1ccc(N2C[C@@H]3C[C@H]2CN3c2cccc(C(F)(F)F)c2)cc1 [N-hydroxy-4-((1S,4S)-5-(3-(trifluoromethyl)phenyl)-2,5-diazabicyclo[2.2.1]heptan-2-yl)benzamide] | 1 to 5 | 0.1 to 1 |  |
| O=C(NO)c1ccc(N2C[C@@H]3C[C@H]2CN3c2cc(C(F)(F)F)ccn2)cc1 [N-hydroxy-4-((1S,4S)-5-(4-(trifluoromethyl)pyridin-2-yl)-2,5-diazabicyclo[2.2.1]heptan-2-yl)benzamide] | 1 to 5 | 0.1 to 1 |  |
| O=C(NO)c1ccc(CN2C(=O)c3ccccc3CCc3ccccc32)cc1 [N-hydroxy-4-((6-oxo-11,12-dihydrodibenzo[b,f]azocin-5(6H)-yl)methyl)benzamide] |  |  | IC50 ([1]; Table 10): 1 to 5 µM; IC50 ([2]; Table 10): 0.1 to 1 µM |
| O=C(NO)c1ccc(Cn2c(=O)c3ccccc3c3ccccc32)cc1 [N-hydroxy-4-((6-oxophenanthridin-5(6H)-yl)methyl)benzamide] |  |  | IC50 ([1]; Table 10): < 1 µM; IC50 ([2]; Table 10): < 0.05 µM |
| O=C(NO)c1ccc(CN2C(=O)c3ccccc3Oc3ccccc32)cc1 [N-hydroxy-4-((11-oxodibenzo[b,f][1,4]oxazepin-10(11H)-yl)methyl)benzamide] |  |  | IC50 ([1]; Table 10): < 1 µM; IC50 ([2]; Table 10): < 0.05 µM |

More lines, main results first:

| IC50 ([1]; Table 9) [µM] | IC50 ([2]; Table 9) [µM] | SMILES | also measured |
| --- | --- | --- | --- |
| 1 to 5 | 0.1 to 1 | COc1cccc(N2CC3CC2CN3c2ccc(C(=O)NO)cc2)c1 (centres unmarked) [N-hydroxy-4-(5-(3-methoxyphenyl)-2,5-diazabicyclo[2.2.1]heptan-2-yl)benzamide] |  |
| 1 to 5 | 0.1 to 1 | Cc1ccc(N2C[C@@H]3C[C@H]2CN3c2ccc(C(=O)NO)cc2)cc1 [N-hydroxy-4-((1S,4S)-5-p-tolyl-2,5-diazabicyclo[2.2.1]heptan-2-yl)benzamide] |  |
